Test results taken from PubChem BioAssay (NCI).
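Test compounds were applied to cells in 96-well plates for 48 hours at 5 doses. GI50 is the concentration that inhibits growth by half. The concentration for full growth arrest is given as TGI.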

Legend:
Experiment in all cases: NCI-60 cell line screen, 48 h
RXF 393 renal = test system: RXF 393 renal
SNB-19 CNS = test system: SNB-19 CNS
EKVX NSCLC = test system: EKVX NSCLC
NCI-H460 lung = test system: NCI-H460 lung
HCT-15 colon = test system: HCT-15 colon
HT29 colon = test system: HT29 colon
SK-MEL-2 melanoma = test system: SK-MEL-2 melanoma
MCF7 breast = test system: MCF7 breast
ACHN renal = test system: ACHN renal
T-47D breast = test system: T-47D breast
SW-620 colon = test system: SW-620 colon
OVCAR-3 ovarian = test system: OVCAR-3 ovarian
MDA-MB-435 = test system: MDA-MB-435
NCI-H522 lung = test system: NCI-H522 lung
DU-145 prostate = test system: DU-145 prostate
HOP-92 NSCLC = test system: HOP-92 NSCLC
786-0 renal = test system: 786-0 renal
PC-3 prostate = test system: PC-3 prostate
RPMI-8226 leukemia = test system: RPMI-8226 leukemia
A498 renal = test system: A498 renal
UACC-257 melanoma = test system: UACC-257 melanoma
NCI-H23 lung = test system: NCI-H23 lung
SNB-75 CNS = test system: SNB-75 CNS
LOX IMVI melanoma = test system: LOX IMVI melanoma
MOLT-4 leukemia = test system: MOLT-4 leukemia
TK-10 renal = test system: TK-10 renal
CCRF-CEM leukemia = test system: CCRF-CEM leukemia
HCT-116 colon = test system: HCT-116 colon
SK-OV-3 ovarian = test system: SK-OV-3 ovarian
BT-549 breast = test system: BT-549 breast
SK-MEL-28 melanoma = test system: SK-MEL-28 melanoma
HCC-2998 colon = test system: HCC-2998 colon
UACC-62 melanoma = test system: UACC-62 melanoma
NCI-H226 lung = test system: NCI-H226 lung
IGROV1 ovarian = test system: IGROV1 ovarian
SR leukemia = test system: SR leukemia
U251 CNS = test system: U251 CNS
SF-539 CNS = test system: SF-539 CNS
K-562 leukemia = test system: K-562 leukemia
OVCAR-8 ovarian = test system: OVCAR-8 ovarian
NCI/ADR-RES ovarian = test system: NCI/ADR-RES ovarian
SF-295 CNS = test system: SF-295 CNS
OVCAR-5 ovarian = test system: OVCAR-5 ovarian
KM12 colon = test system: KM12 colon
UO-31 renal = test system: UO-31 renal
SK-MEL-5 melanoma = test system: SK-MEL-5 melanoma
HS 578T breast = test system: HS 578T breast
A549 NSCLC = test system: A549 NSCLC
OVCAR-4 ovarian = test system: OVCAR-4 ovarian
MDA-MB-231 breast = test system: MDA-MB-231 breast
HOP-62 NSCLC = test system: HOP-62 NSCLC
M14 melanoma = test system: M14 melanoma
HL-60(TB) leukemia = test system: HL-60(TB) leukemia
SN12C renal = test system: SN12C renal
CAKI-1 renal = test system: CAKI-1 renal
MALME-3M melanoma = test system: MALME-3M melanoma
COLO 205 colon = test system: COLO 205 colon
SF-268 CNS = test system: SF-268 CNS

For `C=CC(=O)Nc1cccc(C)c1Nc1cc(-c2cccnc2Cc2c(C)c(OC)cc(OC)c2C)ncn1`, the GI50 (RXF 393 renal) was 2.52 µM, the TGI (RXF 393 renal) was 7.89 µM and the GI50 (SNB-19 CNS) was 7.04 µM. It also gave a TGI (SNB-19 CNS) of 43.1 µM, a GI50 (EKVX NSCLC) of 28.8 µM and a TGI (EKVX NSCLC) greater than 100 µM. For the same molecule, the GI50 (NCI-H460 lung) was 4.91 µM, the TGI (NCI-H460 lung) was 31.7 µM and the GI50 (HCT-15 colon) was 14.4 µM. For the same molecule, the TGI (HCT-15 colon) was 47.2 µM, the GI50 (HT29 colon) was 20.3 µM and the TGI (HT29 colon) was greater than 100 µM. The GI50 (SK-MEL-2 melanoma) was 12.6 µM, the TGI (SK-MEL-2 melanoma) was 32.4 µM and the GI50 (MCF7 breast) was 5.27 µM. It also gave a TGI (MCF7 breast) greater than 100 µM, a GI50 (ACHN renal) of 17.3 µM and a TGI (ACHN renal) greater than 100 µM. The GI50 (T-47D breast) was 7.92 µM, the TGI (T-47D breast) was greater than 100 µM and the GI50 (SW-620 colon) was 10.7 µM. It also gave a TGI (SW-620 colon) of 41.7 µM, a GI50 (OVCAR-3 ovarian) of 7.04 µM and a TGI (OVCAR-3 ovarian) of 38.9 µM. The GI50 (MDA-MB-435) was 12.1 µM, the TGI (MDA-MB-435) was 31.3 µM and the GI50 (NCI-H522 lung) was 11.6 µM. The TGI (NCI-H522 lung) was 36.2 µM, the GI50 (DU-145 prostate) was 16.7 µM and the TGI (DU-145 prostate) was greater than 100 µM. The GI50 (HOP-92 NSCLC) was 9.91 µM, the TGI (HOP-92 NSCLC) was 47.3 µM and the GI50 (786-0 renal) was 10.2 µM. For the same molecule, the TGI (786-0 renal) was 39.6 µM, the GI50 (PC-3 prostate) was 5.65 µM and the TGI (PC-3 prostate) was greater than 100 µM. The GI50 (RPMI-8226 leukemia) was 3.37 µM, the TGI (RPMI-8226 leukemia) was 24.9 µM and the GI50 (A498 renal) was 1.93 µM. It also gave a TGI (A498 renal) of 9.44 µM, a GI50 (UACC-257 melanoma) of 23.7 µM and a TGI (UACC-257 melanoma) greater than 100 µM. For the same molecule, the GI50 (NCI-H23 lung) was 12.7 µM, the TGI (NCI-H23 lung) was 47.3 µM and the GI50 (SNB-75 CNS) was 13.2 µM. The TGI (SNB-75 CNS) was 91.2 µM, the GI50 (LOX IMVI melanoma) was 6.12 µM and the TGI (LOX IMVI melanoma) was 19.8 µM. For the same molecule, the GI50 (MOLT-4 leukemia) was 3.6 µM, the TGI (MOLT-4 leukemia) was greater than 100 µM and the GI50 (TK-10 renal) was 10.8 µM. It also gave a TGI (TK-10 renal) of 99.4 µM, a GI50 (CCRF-CEM leukemia) of 8.26 µM and a TGI (CCRF-CEM leukemia) greater than 100 µM. It also gave a GI50 (HCT-116 colon) of 16.6 µM, a TGI (HCT-116 colon) of 44.6 µM and a GI50 (SK-OV-3 ovarian) of 34.5 µM. The TGI (SK-OV-3 ovarian) was greater than 100 µM, the GI50 (BT-549 breast) was 6.23 µM and the TGI (BT-549 breast) was 29.6 µM. The GI50 (SK-MEL-28 melanoma) was 16.9 µM, the TGI (SK-MEL-28 melanoma) was 69.2 µM and the GI50 (HCC-2998 colon) was 16 µM. For the same molecule, the TGI (HCC-2998 colon) was 30.6 µM, the GI50 (UACC-62 melanoma) was 10.3 µM and the TGI (UACC-62 melanoma) was 25.9 µM. The GI50 (NCI-H226 lung) was 10.5 µM, the TGI (NCI-H226 lung) was 63 µM and the GI50 (IGROV1 ovarian) was 14.2 µM. It also gave a TGI (IGROV1 ovarian) of 53.9 µM, a GI50 (SR leukemia) of 4.41 µM and a TGI (SR leukemia) greater than 100 µM. It also gave a GI50 (U251 CNS) of 6.26 µM, a TGI (U251 CNS) of 30 µM and a GI50 (SF-539 CNS) of 3.47 µM. For the same molecule, the TGI (SF-539 CNS) was 38.2 µM, the GI50 (K-562 leukemia) was 7.55 µM and the TGI (K-562 leukemia) was greater than 100 µM. For the same molecule, the GI50 (OVCAR-8 ovarian) was 12 µM, the TGI (OVCAR-8 ovarian) was 50 µM and the GI50 (NCI/ADR-RES ovarian) was 9.9 µM. It also gave a TGI (NCI/ADR-RES ovarian) of 38 µM, a GI50 (SF-295 CNS) of 6.47 µM and a TGI (SF-295 CNS) of 73.9 µM. It also gave a GI50 (OVCAR-5 ovarian) of 27.4 µM, a TGI (OVCAR-5 ovarian) greater than 100 µM and a GI50 (KM12 colon) of 13.4 µM. The TGI (KM12 colon) was 34.2 µM, the GI50 (UO-31 renal) was 18.4 µM and the TGI (UO-31 renal) was greater than 100 µM. For the same molecule, the GI50 (SK-MEL-5 melanoma) was 10.7 µM, the TGI (SK-MEL-5 melanoma) was 23.5 µM and the GI50 (HS 578T breast) was 10.6 µM. The TGI (HS 578T breast) was 68.3 µM, the GI50 (A549 NSCLC) was 16.2 µM and the TGI (A549 NSCLC) was greater than 100 µM. For the same molecule, the GI50 (OVCAR-4 ovarian) was 20.6 µM, the TGI (OVCAR-4 ovarian) was greater than 100 µM and the GI50 (MDA-MB-231 breast) was 5.65 µM. For the same molecule, the TGI (MDA-MB-231 breast) was 70.9 µM, the GI50 (HOP-62 NSCLC) was 19 µM and the TGI (HOP-62 NSCLC) was 75.7 µM. For the same molecule, the GI50 (M14 melanoma) was 22.5 µM, the TGI (M14 melanoma) was 97.5 µM and the GI50 (HL-60(TB) leukemia) was 5.22 µM. The TGI (HL-60(TB) leukemia) was 48.9 µM, the GI50 (SN12C renal) was 11.2 µM and the TGI (SN12C renal) was 64.9 µM. The GI50 (CAKI-1 renal) was 9.97 µM, the TGI (CAKI-1 renal) was greater than 100 µM and the GI50 (MALME-3M melanoma) was 17.8 µM. It also gave a TGI (MALME-3M melanoma) of 49 µM, a GI50 (COLO 205 colon) of 13.1 µM and a TGI (COLO 205 colon) greater than 100 µM. It also gave a GI50 (SF-268 CNS) of 9.59 µM and a TGI (SF-268 CNS) of 60.3 µM.
